This assay has as its target T1, Human HPK1, catalytic domain (Homo sapiens, UniProt Q92918).
T1 construct: purchased Carna
T1 sequence (Q92918 1-346): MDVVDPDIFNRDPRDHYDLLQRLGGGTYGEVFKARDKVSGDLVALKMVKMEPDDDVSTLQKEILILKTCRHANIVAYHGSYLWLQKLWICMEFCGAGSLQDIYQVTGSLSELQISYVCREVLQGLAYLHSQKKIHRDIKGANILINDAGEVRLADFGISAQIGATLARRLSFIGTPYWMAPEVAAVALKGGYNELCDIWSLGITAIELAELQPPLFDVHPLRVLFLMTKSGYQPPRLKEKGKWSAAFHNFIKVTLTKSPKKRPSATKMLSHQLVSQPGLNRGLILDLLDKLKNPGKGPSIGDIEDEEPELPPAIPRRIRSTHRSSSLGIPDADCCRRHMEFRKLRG
The assay is described as follows: HPK1-SLP76 TR-FRET assay. The assay is classed as biochemical. Particulars: 75 pM HPK1, 10 uM ATP, 10 nM SLP76, 30 min compound pre-incubation.
A word on the IC50: it is the concentration that inhibits the measured activity by half. On to `COc1cc2c(cc1Nc1ncc(C(N)=O)c(Nc3ccccc3CC(F)(F)F)n1)CN(C)CC2` [Example 7-98, 2-[(6-methoxy-2-methyl-1,2,3,4-tetrahydroisoquinolin-7-yl)amino]-4-{[2-(2,2,2-trifluoroethyl)phenyl]amino}pyri-midine-5-carboxamide], for which the IC50 was determined as 0.07 nM.
Compound `COc1cc2c(cc1Nc1ncc(C(N)=O)c(Nc3ccccc3CN3CCOCC3)n1)CN(C)CC2` [Example 7-99, 2-[(6-methoxy-2-methyl-1,2,3,4-tetrahydroisoquinolin-7-yl)amino]-4-({2-[(morpholin-4-yl)methyl]phenyl}amino)pyrimi-dine-5-carboxamide] showed an IC50 of 1.44 nM.
Consider `N#CC1(c2ccc(Nc3ncc(C(N)=O)c(Nc4ccccc4Br)n3)cc2)CC1` [Example 7-100, 4-[(2-bromophenyl)amino]-2-{[4-(1-cyanocyclopropyl)phenyl]amino} pyrimidine-5-carboxamide], for which the 50% inhibitory concentration (IC50) is 30 nM.
On to `C#Cc1ccccc1Nc1nc(Nc2cc3c(cc2OC)CCN(C)C3)ncc1C(N)=O` [Example 7-102, 4-[(2-ethynylphenyl)amino]-2-[(6-methoxy-2-methyl-1,2,3,4-tetrahydroisoquinolin-7-yl)amino]pyrimidine-5-carboxamide], for which the midpoint of inhibition, the IC50, lay at 0.61 nM.
The compound `NC(=O)c1cnc(Nc2ccc3c(c2)COC3=O)nc1Nc1ccccc1Br` [Example 7-103, 4-[(2-bromopehnyl)amino]-2-[(1-oxo-1,3-dihydro-2-benzofuran-5-yl)amino]pyrimidine-5-carboxamide] gave a half-maximal inhibitory concentration (IC50) of 188 nM.
Regarding `NC(=O)c1cnc(Nc2ccccc2)nc1Nc1ccccc1Br` [Example 7-105, 4-[(2-bromophenyl)amino]-2-(phenylamino)pyrimidine-5-carboxamide], the 50% inhibitory concentration (IC50) was determined as 345 nM.
To `NC(=O)c1cnc(Nc2ccc3c(c2)C(=O)OCC3)nc1Nc1ccccc1Br` [Example 7-106, 4-[(2-bromophenyl)amino]-2-[(1-oxo-3,4-dihydro-1H-2-benzopyran-7-yl)amino]pyrimidine-5-carboxamide] belongs 63.8 nM.
In turn, `NC(=O)c1cnc(Nc2ccc3c(c2)COCC3)nc1Nc1ccccc1Br` [Example 7-107, 4-[(2-bromophenyl)amino]-2-[(3,4-dihydro-1H-2-benzopyran-7-yl)amino]pyrimidine-5-carboxamide] gave an IC50 of 55 nM.
`N#CC1(c2ccc(Nc3ncc(C(N)=O)c(Nc4ccccc4CO)n3)cc2)CC1` [Example 7-108, 2-{[4-(1-cyanocyclopropyl)phenyl]amino}-4-{[2-(hydroxymethyl)phenyl]amino}py-rimidine-5-carboxamide] showed an IC50 of 4.17 nM.
To `COc1cc2c(cc1Nc1ncc(C(N)=O)c(Nc3ccccc3OC(C)C)n1)CN(C)CC2` [Example 7-111, 2-[(6-methoxy-2-methyl-1,2,3,4-tetrahydroisoquinolin-7-yl)amino]-4-({2-[(propan-2-yl)oxy]phenyl}amino)pyrimidine-5-carboxamide] belongs 0.26 nM; to `CCOc1ccccc1Nc1nc(Nc2cc3c(cc2OC)CCN(C)C3)ncc1C(N)=O` [Example 7-112, 4-[(2-ethoxyphenyl)amino]-2-[(6-methoxy-2-methyl-1,2,3,4-tetrahydroisoquinolin-7-yl)amino]pyrimidine-5-carboxamide], 0.03 nM; to `COc1cc2c(cc1Nc1ncc(C(N)=O)c(Nc3ccccc3SC(F)(F)F)n1)CN(C)CC2` [Example 7-113, 2-[(6-methoxy-2-methyl-1,2,3,4-tetrahydroisoquinolin-7-yl)amino]-4-({2-[(trifluoromethyl)sulfanyl]phenyl}amino)pyrimidine-5-carobxamide], 0.13 nM.
With `COc1cc2c(cc1Nc1ncc(C(N)=O)c(Nc3ccccc3OC(F)F)n1)CN(C)CC2` [Example 7-114, 4-{[2-(difluoromethoxy)phenyl]amino}-2-[(6-methoxy-2-methyl-1,2,3,4-tetrahydroisoquinolin-7-yl)amino]pyrimidine-5-carboxamide] the figure was 0.09 nM; with `COc1cc2c(cc1Nc1ncc(C(N)=O)c(Nc3ccccc3OC(F)(F)F)n1)CN(C)CC2` [Example 7-115, 2-[(6-methoxy-2-methyl-1,2,3,4-tetrahydroisoquinolin-7-yl)amino]-4-{[2-(trifluoromethoxy)phenyl]amino} pyrimidine-5-carboxamide], 0.2 nM; with `COc1cc(N2CCC(N3CCOCC3)CC2)ccc1Nc1ncc(C(N)=O)c(Nc2ccccc2Br)n1` [Example 7-116, 4-[(2-bromophenyl)amino]-2-({2-methoxy-4-[4-(morpholin-4-yl)piperidin-1-yl]phenyl}amino)pyrimidine-5-carboxamide], 283 nM.
`COc1cc2c(cc1Nc1ncc(C(N)=O)c(Nc3ccccc3C(=O)Nc3ccccc3)n1)CN(C)CC2` [Example 7-117, 2-((6-methoxy-2-methyl-1,2,3,4-tetrahydroisoquinolin-7-yl)amino)-4-((2-(phenylcarbamoyl)phenyl)amino) pyrimidine-5-carboxamide] came in with a half-inhibitory concentration (IC50) of 54.8 nM.
With `COc1cc2c(cc1Nc1ncc(C(N)=O)c(Nc3ccccc3C(=O)NC3CC3)n1)CN(C)CC2` [Example 7-118, 4-((2-(cyclopropylcarbamoyl)phenyl)a-mino)-2-((6-methoxy-2-methyl-1,2,3,4-tetrahydroisoquinolin-7-yl)amino)pyrimidine-5-carboxamide] the figure was 2.74 nM; with `COc1cc(C2CCCN2)ccc1Nc1ncc(C(N)=O)c(Nc2ccccc2C(F)(F)F)n1` (stereo not drawn) [Example 8-1, 2-((2-Methoxy-4-(pyrrolidin-2-yl)phenyl)amino)-4-((2-(trifluoromethyl)phenyl)amino)pyrimidine-5-carboxamide], 1.26 nM; with `COc1cc(C2CCNCC2)ccc1Nc1ncc(C(N)=O)c(Nc2ccccc2C(F)(F)F)n1` [Example 8-2, 2-((2-methoxy-4-(piperidin-4-yl)phenyl)amino)-4-((2-(trifluoromethyl)phenyl)amino)pyrimidine-5-carboxamide], 11.7 nM.
To `COc1cc(C2CCNC2)ccc1Nc1ncc(C(N)=O)c(Nc2ccccc2Br)n1` (stereo not drawn) [Example 8-3, 4-((2-bromophenyl)amino)-2-((2-methoxy-4-(pyrrolidin-3-yl)phenyl)amino)pyrimidine-5-carboxamide] belongs 9.48 nM; to `COc1cc(C2CNC2)ccc1Nc1ncc(C(N)=O)c(Nc2ccccc2Br)n1` [Example 8-4, 2-((4-(azetidin-3-yl)-2-methoxyphenyl)amino)-4-((2-bromophenyl)amino)pyrimidine-5-carboxamide], 13.9 nM.
The compound `COc1cc2c(cc1Nc1ncc(C(N)=O)c(Nc3ccccc3Br)n1)CNCC2` [Example 9-1, 4-[(2-bromophenyl)amino]-2-[(6-methoxy-1,2,3,4-tetrahydroisoquinolin-7-yl)amino]pyrimidine-5-carboxamide] registered an IC50 of 0.09 nM.
With `COc1cc2c(cc1Nc1ncc(C(N)=O)c(Nc3ccccc3Br)n1)CN(C1COC1)CC2` [Example 9-2, 4-[(2-bromophenyl)amino]-2-{[6-methoxy-2-(oxetan-3-yl)-1,2,3,4-tetrahydroisoquinolin-7-yl]amino}pyrimidine-5-carboxamide] the figure was 1.42 nM; with `COCCOCCOCCCN1CCc2cc(OC)c(Nc3ncc(C(N)=O)c(Nc4ccccc4Br)n3)cc2C1` [Example 9-5, 4-((2-bromophenyl)amino)-2-((6-methoxy-2-(3-(2-(2-methoxyethoxy)ethoxy)propyl)-1,2,3,4-tetrahydroisoquinolin-7-yl)amino)pyrimidine-5-carboxamide], 0.71 nM; with `COc1cc2c(cc1Nc1ncc(C(N)=O)c(Nc3ccccc3Br)n1)CN(C1CC(C#N)C1)CC2` (stereo not drawn) [Example 9-6, 4-((2-bromophenyl)amino)-2-((2-(3-cyanocyclobutyl)-6-methoxy-1,2,3,4-tetrahydroisoquinolin-7-yl)amino)pyrimidine-5-carboxamide], 4.57 nM.
Consider `COc1cc2c(cc1Nc1ncc(C(N)=O)c(Nc3ccccc3Br)n1)CN(C1CCOCC1)CC2` [Example 9-7, 4-[(2-bromophenyl)amino]-2-{[6-methoxy-2-(oxan-4-yl)-1,2,3,4-tetrahydroisoquinolin-7-yl]amino}pyrimidine-5-carboxamide], for which the 50% inhibitory concentration (IC50) stood at 0.84 nM.
`COc1cc2c(cc1Nc1ncc(C(N)=O)c(Nc3ccccc3Br)n1)CN(C(C)C)CC2` [Example 9-8, 4-[(2-bromophenyl)amino]-2-{[6-methoxy-2-(propan-2-yl)-1,2,3,4-tetrahydroisoquinolin-7-yl]amino}pyrimidine-5-carboxamide] displayed a 50% inhibitory concentration (IC50) of 16.4 nM.
`COc1cc2c(cc1Nc1ncc(C(N)=O)c(Nc3ccccc3Br)n1)CN(C1CC(OC)C1)CC2` (stereo not drawn) [Example 9-9, 4-[(2-bromophenyl)amino]-2-{[6-methoxy-2-(3-methoxycyclobutyl)-1,2,3,4-tetrahydroisoquinolin-7-yl]amino}pyrimidine-5-carboxamide]: 3.27 nM corresponded to half-maximal inhibition (IC50).
Consider `COc1cc2c(cc1Nc1ncc(C(N)=O)c(Nc3ccccc3Br)n1)CN(C1CC(C(=O)O)C1)CC2` (stereo not drawn) [Example 9-10, 3-[7-({4-[(2-bromophenyl)amino]-5-carbamoylpyrimidin-2-yl}amino)-6-methoxy-3,4-dihydroisoquinolin-2(1H)-yl]cyclobutane-1-carboxylic acid], for which the half-maximal inhibitory concentration (IC50) was 1.6 nM.
The compound `COc1cc2c(cc1Nc1ncc(C(N)=O)c(Nc3c(F)cccc3F)n1)CNCC2` [Example 9-11, 4-(2,6-difluoroanilino)-2-[(6-methoxy-1,2,3,4-tetrahydroisoquinolin-7-yl)amino]pyrimidine-5-carboxamide] registered an IC50 of 0.79 nM.

The values are drawn from patent US20230416225A1, “DIAMINOPYRIMIDINE CARBOXAMIDE INHIBITORS OF HPK1” (MERCK SHARP & DOHME LLC, priority 2020, published 2023).
